Test results: PubChem BioAssay (NCI)
Several values for one entry are separate records, joined by “and”; a condition that tells them apart may be missing. Identical values can stand only once.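 Compound exposure: 48 hours, 5 concentrations, 96-well plates. Abbreviation: GI50, concentration required for 50% inhibition of growth. TGI marks complete inhibition of growth.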

Assays:
Assay in all cases: DTP human tumour cell line panel, 48 h
[1] = system: SK-MEL-28 melanoma
[2] = system: HCC-2998 colon
[3] = system: COLO 205 colon
[4] = system: CAKI-1 renal
[5] = system: MDA-MB-435
[6] = system: OVCAR-5 ovarian
[7] = system: TK-10 renal
[8] = system: A549 NSCLC
[9] = system: SK-MEL-2 melanoma
[10] = system: NCI-H460 lung

Structure (SMILES) | GI50 [1] [µM] | TGI [1] [µM] | GI50 [2] | TGI [2] | GI50 [3] [µM] | TGI [3] | GI50 [4] [µM] | TGI [4] [µM] | GI50 [5] [µM] | TGI [5] [µM] | GI50 [6] [µM] | TGI [6] [µM] | GI50 [7] [µM] | TGI [7] [µM] | GI50 [8] [µM] | TGI [8] [µM] | GI50 [9] [µM] | TGI [9] [µM] | GI50 [10] [µM] | TGI [10] [µM]
CC1=CCC(OC(=O)C(C)(C)CCC(O)(C(=O)OC2(C(C)C)CCC3(C)OC3C2)C(C)C)(C(C)C)CC1 (configuration not stated) | 0.993 | 3.01 | 2.13 µM | 7.33 µM | 0.496 | 1.59 µM | 0.255 | 1.05 | 0.355 | 1.04 | 0.695 | 1.39 | 0.532 | 1.43 | 0.279 | 1.16 | 0.79 | 1.78 | 0.57 | 1.39
COc1ccc2c(c1)c(-c1nc(-c3c[nH]c4ncccc34)cs1)cn2CCCCN1CCOCC1 | 1.85 | 3.4 | 1.91 µM | 3.7 µM | 1.85 | 3.58 µM | 1.8 | 3.79 | 1.7 | 3.17 | 1.99 | 4.02 | 5.25 | 18 | 2.23 | 4.28 | 1.97 | 3.83 | 1.99 | 3.9
O=C1Nc2ccccc2C1Cc1ccc([N+](=O)[O-])cc1 (configuration not stated) |  | > 100 |  | > 100 µM |  | > 100 µM |  | > 100 |  | > 100 |  | > 100 |  | > 100 |  | > 100 |  | > 100 |  | > 100
O=C1C=C[C@@]23C[C@@H](Nc4c(O)c5c6c(c42)=NCCC=6C=N5)SC3=C1 | 7.48 | 20.1 | 4.39 µM | 13.6 µM |  | 2.92 µM |  | 32.1 |  | 2.98 | 5.13 | 9.5 |  | 27.7 | 8.62 | 24.4 | 1.94 | 4.03 | 7.2 | 19.8
COc1ccc(C(=O)/C=C/c2c(C(F)(F)F)nc3sccn23)cc1OC | 8.48 | > 100 | 5.07 µM | 97.5 µM | 4.56 | 72.4 µM | 2.46 | > 100 | 1.85 | > 100 | 4.18 | 39.1 | 8.76 | > 100 | 4.65 | > 100 | 4.08 | 92.5 | 1.94 | 6.65
CCCCCCC#Cc1ccccc1C#CCO | 18 | 45.3 | 23.7 µM | 42.6 µM | 17.2 | 34 µM | 14.6 | 33.2 | 18.4 | 37.2 | 38.7 | > 100 | 22.6 | 61.4 | 20.7 | 49 | 18.9 | 39.8 | 32.8 | > 100
CCc1cccc2c3c(sc12)C(c1ccc(Cl)cc1)C(C#N)=C(N)O3 (configuration not stated) | 2.06 | 19.3 | 1.32 µM | 7.42 µM | 0.81 | 6.27 µM | 0.403 | 14 | 0.196 | 0.463 | 1.42 | 8.93 | 3.18 | 15.4 | 0.736 | 12.9 | 1.25 | 19.2 | 0.414 | 3.01
COc1ccc(-c2nnc(SCC(=O)Nc3ccc(/C(C)=N\O)cc3)n2-c2ccccc2)cc1OC | > 100 | > 100 | > 100 µM | > 100 µM | > 100 | > 100 µM | > 100 | > 100 | > 100 | > 100 | > 100 | > 100 | 11.3 | 52.7 | 9.73 | > 100 | 5.04 | 28.8 | > 100 | > 100
C/C([O-])=C1\Cc2ccccc2C1=O.C/C([O-])=C1\Cc2ccccc2C1=O.CC[O-].CC[O-].[Ti+4] | 17.7 | 38.1 | 17.3 µM | 58.8 µM | 27.4 | 67.4 µM | 36.5 | > 100 | 17.6 | 43 | 30.5 | 72.9 | 32.2 | > 100 | 28.5 | > 100 | 13.5 | 33.6 | 10.3 | 44.7
COc1ccc(-c2cnnn2-c2cc(OC)c3c(c2)OCO3)cc1 | 0.58 | > 100 | 0.307 µM |  | 0.0578 | 0.52 µM | 0.118 | > 100 | 0.0202 | 0.0512 | 0.502 | > 100 | 25 | > 100 | 0.107 | > 100 | 0.0955 | 90.4 | 0.0728 | > 29.2
O=C(CCCCCCSc1nc(-c2ccccc2)cc(-c2ccccc2)n1)NO | 2.85 | 12.4 | 3.07 µM | 11.9 µM | 2.67 | 10.7 µM | 1.56 | 6.39 | 1.98 | 11.2 | 1.84 | 7.92 | 2.51 | 13.5 | 2.45 | 10.4 | 3.94 | 21 | 1.4 | 11.7
Cc1nn(-c2ccccc2)c2c1CC(=O)Nc1ccccc1-2 | 0.357 | > 100 | 0.624 µM and 0.222 µM | 7.54 µM and 2.49 µM | 0.318 | 4.84 µM and 1.99 µM | 0.346 | > 100 |  | 0.602 |  | > 100 |  | 92.2 | 0.764 | > 100 | 0.387 | > 100 | 0.381 | > 100
Cc1ccc2c(c1C)-c1c(ccc(C)c1C)C(=O)C2=O |  | 2.83 |  | 18 µM |  | 4.62 µM |  | 7.84 |  | 0.619 |  | 3.42 |  | 9.11 |  | 10.3 |  | 3.1 |  | 3.4
